The text below walks through data of ChEMBL document CHEMBL1134727, “Synthesis and structure-activity relationship of diarylamide derivatives as selective inhibitors of the proliferation of human coronary artery smooth muscle cells” (Bioorg Med Chem Lett, 2001).

As a reminder, the IC50 is the midpoint of a concentration-inhibition curve.

The nature of experiment [1]: Inhibition of human coronary artery smooth muscle cells (SMC's) proliferation, induced by platelet-derived growth factor (PDGF-BB) 20 ng mL. The class given is functional.
The nature of experiment [2]: Evaluated for inhibition of proliferation of human coronary artery endothelial cells (ECs), induced by 5 % FBS. It is filed as functional, cell-based. As to conditions: Endothelial cell.
Experiment [3] in a line: Ratio of inhibitory activity on proliferation of human coronary artery smooth muscle cells to that of human coronary artery endothelial cells. The class given is functional, Endothelial cell.

Where only a bound is given, the exact number is not on record here.

`COc1ccc(C(=O)Nc2cc(OC)c(OC)cc2C(=O)O)cc1OC`: the IC50 in experiment [1] was over 2000 nM.

With `COc1cc(C(=O)Nc2ccc(Cl)cc2C(N)=O)cc(OC)c1OC`, the IC50 in experiment [1] was over 2000 nM.

`COc1ccc(NC(=O)c2ccc(OC)c(OC)c2)cc1OC` had an IC50 in experiment [1] of over 2000 nM.

Consider `CCOC(=O)c1cc(OC)c(OC)cc1NC(=O)Cc1ccc(OC)c(OC)c1`, for which the results for the IC50 in experiment [2] and in experiment [1] were 4700 nM and 800 nM, respectively. The Ratio in experiment [3] was 6.

For `COc1ccc(C(=O)Nc2cc(OC)c(OC)cc2C(N)=O)cc1OC`, the IC50 in experiment [2] is over 10000 nM; in experiment [1] it was 720 nM. The Ratio in experiment [3] is over 14.

`CCOC(=O)c1cc(OC)c(OC)cc1NC(=O)c1ccc(OC(C)=O)c(OC)c1` came in with an IC50 in experiment [1] of 2800 nM.

As to `CCOC(=O)c1cc(OC)c(OC)cc1NC(=O)c1ccc(OC(C)=O)cc1`, the figures for the IC50 in experiment [2] and in experiment [1] were 5200 nM and 1300 nM, respectively. In addition, the Ratio in experiment [3] came to 4.

Regarding `CCOC(=O)c1cc(OC)c(OC)cc1NC(=O)c1ccc(O)c(N)c1`, the 50% inhibitory concentration (IC50) in experiment [1] was over 2000 nM.

Turning to `COc1cc(C(=O)Nc2cc(N)ccc2C(N)=O)cc(OC)c1OC`, the IC50 in experiment [1] was over 2000 nM.

For the compound `CCOC(=O)c1cc(OC)c(OC)cc1NC(=O)c1ccc(O)c([N+](=O)[O-])c1`, the 50% inhibitory concentration (IC50) is 7200 nM in experiment [2] and 1800 nM in experiment [1]. For the same compound, in experiment [3], the Ratio is 4.

On to `COc1ccc(/C=C/C(=O)Nc2ccccc2C(N)=O)cc1OC`, for which the IC50 in experiment [2] was 34500 nM; in experiment [1], 16700 nM. In experiment [3], the Ratio worked out at 2.

Compound `COc1cc(C(=O)Nc2ccccc2C(N)=O)cc(OC)c1OC` displayed a 50% inhibitory concentration (IC50) in experiment [1] of over 2000 nM.

For `CNC(=O)c1cc(OC)c(OC)cc1NC(=O)c1ccc(OC)c(OC)c1`, the IC50 in experiment [1] was over 2000 nM.

Consider `CCOC(=O)c1cc(OC)c(OC)cc1NC(=O)c1cc(OC(C)=O)c(OC(C)=O)c(OC(C)=O)c1`, for which, in experiment [1], the IC50 was over 2000 nM.

`CCOC(=O)c1ccccc1NC(=O)/C=C/c1ccc(OC)c(OC)c1`: the IC50 was 9500 nM in experiment [2] and over 50000 nM in experiment [1].

With `CCOC(=O)c1cc(OC)c(OC)cc1NC(=O)c1cccc(OC)c1`, the IC50 in experiment [2] turned out to be 6100 nM; in experiment [1] it was 1600 nM. For the same compound, in experiment [3], the Ratio was 4.

Take `CCOC(=O)c1cc(OC)c(OC)cc1NC(=O)/C=C\c1ccc(OC)c(OC)c1`: the figures for the concentration for half-maximal inhibition (IC50) in experiment [2] and in experiment [1] were 4100 nM and 1200 nM, respectively. For the same compound, the Ratio in experiment [3] was 4.

Take `CCOC(=O)c1cc(OC)c(OC)cc1NC(=O)c1ccc(OC)cc1`: the IC50 was under 2000 nM in experiment [2] and 610 nM in experiment [1].

Compound `CCOC(=O)c1cc(OC)c(OC)cc1NC(=O)c1ccc(OC(C)=O)c(OC(C)=O)c1` showed an IC50 in experiment [1] of 2200 nM.

As to `CCOC(=O)c1cc(OC)c(OC)cc1NC(=O)c1ccccc1OC`, the half-maximal inhibitory concentration (IC50) in experiment [2] turned out to be 3800 nM; in experiment [1], 800 nM. Besides, the Ratio in experiment [3] is recorded as 5.

`COc1cc(C(=O)Nc2cc([N+](=O)[O-])ccc2C(N)=O)cc(OC)c1OC`: the 50% inhibitory concentration (IC50) is under 2000 nM in experiment [2] and 1600 nM in experiment [1].

As to `COc1ccc(/C=C/C(=O)Nc2ccccc2C(=O)O)cc1OC` [TRANILAST], the IC50 in experiment [2] is 19100 nM; in experiment [1], 24500 nM. Further, the Ratio in experiment [3] turned out to be 0.8.

In the case of `COc1cc(C(=O)Nc2cc(F)c(F)cc2C(N)=O)cc(OC)c1OC`, the results for the 50% inhibitory concentration (IC50) in experiment [2] and in experiment [1] were over 10000 nM and 2000 nM, respectively. The Ratio in experiment [3] is on record as over 5.

In the case of `CCOC(=O)c1cc(OC)c(OC)cc1NC(=O)c1ccc(OC)c(OC)c1`, the half-maximal inhibitory concentration (IC50) in experiment [2] was 6000 nM; in experiment [1], 850 nM. Moreover, the Ratio in experiment [3] was determined as 7.

In the case of `COc1ccc(C(=O)Nc2cc(OC)c(OC)cc2C(=O)N(C)C)cc1OC`, the IC50 in experiment [1] was over 2000 nM.

As for `COc1cc(C(=O)Nc2cc(C)ccc2C(N)=O)cc(OC)c1OC`, the half-maximal inhibitory concentration (IC50) in experiment [1] was over 2000 nM.

Take `COc1ccc(C(=O)Nc2cc(OC)c(OC)cc2C#N)cc1OC`: the IC50 in experiment [1] is over 2000 nM.

For `CCOC(=O)c1cc(OC)c(OC)cc1NC(=O)c1cc(OC)c(OC(C)=O)c(OC)c1`, in experiment [1], the 50% inhibitory concentration (IC50) was found to be 3100 nM.

Take `CCOC(=O)c1cc(OC)c(OC)cc1NC(=O)c1ccc(OC)c(OC)c1OC`: the IC50 turned out to be 2900 nM in experiment [2] and 410 nM in experiment [1]. For the same compound, the Ratio in experiment [3] is listed as 7.

`CCOC(=O)c1cc(OC)c(OC)cc1NC(=O)c1cc(OC)c(OC)c(OC)c1`: the IC50 in experiment [2] was 4600 nM; in experiment [1], 310 nM. Further, the Ratio in experiment [3] amounted to 15.
